Experimental data taken from PubChem BioAssay (NCI).
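Exposure lasted 48 hours, with cells grown in 96-well plates and compounds tested at five concentrations. Definition used: TGI = concentration required for complete inhibition of growth.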

Tests used:
Assay in all cases: NCI tumour cell line growth inhibition, 48 h
A549 NSCLC = test system: A549 NSCLC
UACC-257 melanoma = test system: UACC-257 melanoma
NCI-H460 lung = test system: NCI-H460 lung
UACC-62 melanoma = test system: UACC-62 melanoma
PC-3 prostate = test system: PC-3 prostate
HCC-2998 colon = test system: HCC-2998 colon
DU-145 prostate = test system: DU-145 prostate
OVCAR-5 ovarian = test system: OVCAR-5 ovarian
UO-31 renal = test system: UO-31 renal
TK-10 renal = test system: TK-10 renal

Structure (SMILES)	TGI (A549 NSCLC)	TGI (UACC-257 melanoma)	TGI (NCI-H460 lung)	TGI (UACC-62 melanoma)	TGI (PC-3 prostate)	TGI (HCC-2998 colon)	TGI (DU-145 prostate)	TGI (OVCAR-5 ovarian)	TGI (UO-31 renal)	TGI (TK-10 renal)
Nc1ccc(-c2nc3ccccc3s2)cc1Cl	> 100 µM	> 100 µM	> 100 µM	> 100 µM	> 100 µM	> 100 µM	> 100 µM	> 100 µM	> 100 µM	–
Cc1ccc(S(=O)(=O)NC(CCC(=O)NNc2ccccc2)C(=O)NNc2ccccc2)cc1 (stereo not given)	48.8 µM	> 100 µM	51.6 µM	> 100 µM	> 100 µM	–	–	> 100 µM	> 100 µM	46.5 µM
Cc1cc(-n2nnc(C(=O)O)c2-c2ccccc2)c2ccc(Cl)cc2n1	> 100 µM	> 100 µM	> 100 µM	> 100 µM	> 100 µM	> 100 µM	> 100 µM	> 100 µM	> 100 µM	> 100 µM
NCCCN(CCCCN(CCCN)C(=O)OCc1ccccc1)C(=O)OCc1ccccc1	> 100 µM	> 100 µM	> 100 µM	> 100 µM	> 100 µM	> 100 µM	> 100 µM	> 100 µM	> 100 µM	> 100 µM
O=C(c1ccccc1)c1ccc2nc(-c3c(Cl)c(Cl)c(Cl)c(Cl)c3-c3nnc(-c4ccccc4)o3)[nH]c2c1	> 100 µM	> 100 µM	–	–	> 100 µM	–	> 100 µM	> 100 µM	> 100 µM	> 100 µM
COC(=O)[C@H](Cc1c[nH]c2ccccc12)NP(=O)(OCCC#N)OCC1OC(n2cc(C)c(=O)[nH]c2=O)CC1N=[N+]=[N-] (stereo not given in full)	> 100 µM	> 100 µM	> 100 µM	> 100 µM	> 100 µM	> 100 µM	> 100 µM	> 100 µM	> 100 µM	> 100 µM
CC1CC/C(=C\c2ccc(F)cc2)C2=C1C(c1ccc(F)cc1)N1C(=O)CSC1=N2 (stereo not given)	–	> 100 µM	> 100 µM	> 100 µM	> 100 µM	–	> 100 µM	–	> 100 µM	> 100 µM
Cc1cc(S(=O)(=O)Nc2nc3ncccc3[nH]2)c(S)cc1Cl	> 100 µM	> 100 µM	> 100 µM	> 100 µM	> 100 µM	> 100 µM	> 100 µM	> 100 µM	–	> 100 µM
O=C1CCCNn2c(nc3ncccc3c2=O)N1	> 100 µM	> 100 µM	> 100 µM	> 100 µM	> 100 µM	–	–	> 100 µM	> 100 µM	> 100 µM
O=C(CCN1CCOCC1)/C(=C/c1ccccc1)c1ccccc1	36.6 µM	9.72 µM	23.1 µM	7.52 µM	–	28.3 µM	–	30.4 µM	28.1 µM	–
COC(=O)C1=C(OC(=O)/C(=C/c2ccccc2)c2ccc(OC)cc2)C(C(=O)OC)[C@@]2(O)[C@@H](C(=O)OC)[C@H](C)C[C@@H]1[C@@H]2C(=O)OC (stereo not given in full)	> 100 µM	> 100 µM	> 100 µM	> 100 µM	> 100 µM	> 100 µM	> 100 µM	> 100 µM	> 100 µM	> 100 µM
FC(F)(F)c1cc(N(C2c3ccccc3C=Cc3ccccc32)P(Cl)Cl)cc(C(F)(F)F)c1	44.1 µM	39.9 µM	–	–	78.1 µM	–	40.3 µM	49.6 µM	33.4 µM	> 100 µM
CC(C)(C)OC(=O)[C@@H]1CCC(=O)N1C1(c2ccccc2)c2ccccc2-c2ccccc21	> 100 µM	> 100 µM	> 100 µM	> 100 µM	> 100 µM	> 100 µM	> 100 µM	> 100 µM	> 100 µM	> 100 µM
Cc1ccc(S(=O)(=O)NC(=O)NC(Cc2ccc(O)cc2)C(=O)O)cc1 (stereo not given)	> 100 µM	> 100 µM	> 100 µM	–	> 100 µM	–	> 100 µM	> 100 µM	> 100 µM	> 100 µM
O=C(O)CCC(=O)OCN1C(=O)C2C3C=CC(C2C1=O)C1C2C(=O)N(COC(=O)CCC(=O)O)C(=O)C2C31 (stereo not given)	> 100 µM	> 100 µM	> 54.5 µM	> 100 µM	–	> 100 µM	–	> 100 µM	> 100 µM	> 100 µM
O=P1(N2CCOCC2)OCCO1	> 100 µM	> 100 µM	> 100 µM	> 100 µM	> 100 µM	> 100 µM	> 100 µM	> 100 µM	> 100 µM	–
CC(C)(C)C1CCC2c3c([nH]c4ccccc34)C3C(=O)N(c4ccc(C#N)cc4)C(=O)C3C2C1 (stereo not given)	63.5 µM	82.9 µM	17.1 µM	–	17.6 µM	11.1 µM	35.7 µM	56.8 µM	33.2 µM	63.4 µM
O[C@@H]1C=C[C@]23CCN(Cc4cc5c(cc42)OCO5)[C@@H]3C1	> 100 µM	> 100 µM	> 100 µM	> 100 µM	> 100 µM	–	> 100 µM	> 100 µM	> 100 µM	> 100 µM
Nc1cc2c(c3ccccc13)C(CCl)CN2C(=O)c1cc2cc(NC(=O)Nc3ccc4[nH]c(C(=O)N5CC(CCl)c6c5cc(N)c5ccccc65)cc4c3)ccc2[nH]1 (stereo not given)	–	3.24 µM	> 100 µM	1.05 µM	12.8 µM	1.19 µM	0.704 µM	4.22 µM	1.4 µM	3.75 µM
ClC(Cl)(Cl)C1CCOC1n1nnc2ccccc21 (stereo not given)	> 100 µM	> 100 µM	–	> 100 µM	> 100 µM	> 100 µM	> 100 µM	> 100 µM	–	> 100 µM
Cn1cccc1-c1ccc(-c2ccc(CO)[se]2)[se]1	> 100 µM	–	> 100 µM	> 100 µM	> 100 µM	> 68.4 µM	70.1 µM	> 100 µM	96.9 µM	> 100 µM
O=c1[nH]c(=O)n(C2CC(O)C(CO)O2)cc1Oc1ccccc1 (stereo not given)	> 100 µM	> 100 µM	> 100 µM	> 100 µM	> 100 µM	–	> 100 µM	> 100 µM	> 100 µM	> 100 µM
